{"source": "patent US11911383B2", "about": "“Oral solution formulation” (Pfizer Inc., priority 2018, dated 2024)", "key": {"[1]": {"assay": "Effect of pH on the oral aqueous solution (degradation, precipitation)", "format": "physicochemical", "conditions": "pH values above about 4.3", "from_the_text": "In some embodiments, the oral aqueous solution has a pH of from about 3.0 to about 4.5. In some embodiments, the oral aqueous solution has a pH of from about 3.5 to about 4.3. In frequent embodiments, the oral aqueous solution has a pH of from about 3.6 to about 4.0. In some such embodiments, the oral aqueous solution has a pH of about 3.8."}, "[2]": {"assay": "Solubility of palbociclib (free base) in various aqueous buffers, with total degradation by HPLC", "format": "physicochemical", "conditions": "for solubility at 28 h: aqueous buffer solution, 25 °C, thermodynamic from solid", "description": "The solubility of palbociclib (free base) was assessed in various aqueous buffer solutions and mixtures thereof. The buffers were prepared at concentrations ranging from 0.01 M to 0.2 M and at pH values ranging from 2.0 to 8.4. Samples were prepared by weighing and transferring approximately 200 mg of palbociclib to 3-4 mL of the buffer. The solutions were vortexed and placed in a temperature cycle chamber for 8 hours at 25° C., followed by 12 hours at 40° C., then 8 hours at 25° C. The resulting solutions were then analyzed by HPLC to determine the solubility (mg/mL) of palbociclib in the buffer. […] NT=Not tested."}, "[3]": {"conditions": "Sample P: 0.032M Malic Acid, pH NT"}, "[4]": {"conditions": "Sample Q: 0.02M Malic Acid, pH NT"}, "[5]": {"conditions": "Sample R: 0.01M Malic Acid, pH NT"}, "[6]": {"conditions": "aqueous buffer systems of lactic acid and malic acid"}}, "note": "Like-named read-outs stand apart in the source and are kept apart here.", "data": [{"smiles": "CC(=O)c1c(C)c2cnc(Nc3ccc(N4CCNCC4)cn3)nc2n(C2CCCC2)c1=O", "note": "[palbociclib, 6-acetyl-8-cyclopentyl-5-methyl-2-(5-piperazin-1-yl-pyridin-2-ylamino)-8H-pyrido[2,3-d]pyrimidin-7-one]", "values": [{"measurement": "Precipitation of the API", "setting": "[1]", "result": "Some precipitation"}, {"measurement": "Total Degradation", "setting": "[2]; Sample A: 0.2M Citric Acid, pH 2.02, new HPLC peaks greater than 0.05%", "result": 0.52, "unit": "%"}, {"measurement": "Total Degradation", "setting": "[2]; Sample B: 0.2M Malic Acid, pH 2.00", "result": 0.20, "unit": "%"}, {"measurement": "Total Degradation", "setting": "[2]; Sample C: 0.2M DL Lactic Acid, pH 2.07", "result": 0, "unit": "%"}, {"measurement": "Total Degradation", "setting": "[2]; Sample D: 0.2M Succinic acid, pH 2.42", "result": 0.66, "unit": "%"}, {"measurement": "Total Degradation", "setting": "[2]; Sample E: 0.2M Sodium succinate, pH 8.38", "result": 0, "unit": "%"}, {"measurement": "Total Degradation", "setting": "[2]; Sample F: 0.2M Sodium dihydrogen phosphate dihydrate, pH 2.01", "result": 1.27, "unit": "%"}, {"measurement": "Total Degradation", "setting": "[2]; Sample G: 9.5 mL D + 0.5 mL E, pH 3.15", "result": 0.29, "unit": "%"}, {"measurement": "Total Degradation", "setting": "[2]; Sample H: 9 mL D + 1 mL E, pH 3.45", "result": 3.03, "unit": "%"}, {"measurement": "Total Degradation", "setting": "[2]; Sample I: 8 mL D + 2 mL E, pH 3.93", "result": 3.43, "unit": "%"}, {"measurement": "Total Degradation", "setting": "[2]; Sample J: 5 mL D + 5 mL E, pH 4.62", "result": 1.31, "unit": "%"}, {"measurement": "Total Degradation", "setting": "[2]; Sample K: 5 mL D + 10 mL E, pH 4.98", "result": 1.08, "unit": "%"}, {"measurement": "Total Degradation", "setting": "[2]; Sample L: 5 mL D + 15 mL E, pH 5.25", "result": 1.46, "unit": "%"}, {"measurement": "Total Degradation", "setting": "[2]; Sample M: 0.1M DL Lactic Acid, pH 2.31", "result": 0.00, "unit": "%"}, {"measurement": "Total Degradation", "setting": "[2]; Sample N: 0.05M DL Lactic Acid, pH 2.46", "result": 0.00, "unit": "%"}, {"measurement": "Total Degradation", "setting": "[2]; Sample O: 0.01M DL Lactic Acid, pH 2.83", "result": 0.19, "unit": "%"}, {"measurement": "Solubility", "setting": "[2]; [3]", "result": 530, "unit": "µg/mL"}, {"measurement": "Total Degradation", "setting": "[2]; [3]", "result": 1.66, "unit": "%"}, {"measurement": "Solubility", "setting": "[2]; [4]", "result": 600, "unit": "µg/mL"}, {"measurement": "Total Degradation", "setting": "[2]; [4]", "result": 1.62, "unit": "%"}, {"measurement": "Solubility", "setting": "[2]; [5]", "result": 600, "unit": "µg/mL"}, {"measurement": "Total Degradation", "setting": "[2]; [5]", "result": 1.63, "unit": "%"}, {"measurement": "solubility at 28 h", "setting": "[2]; pH 2, aqueous buffer, Sample B: 0.2M Malic Acid, pH 2.00, read-out: Solubility", "result": 15700, "unit": "µg/mL"}, {"measurement": "solubility at 28 h", "setting": "[2]; pH 2.01, aqueous buffer, Sample F: 0.2M Sodium dihydrogen phosphate dihydrate, pH 2.01, read-out: Solubility", "result": 650, "unit": "µg/mL"}, {"measurement": "solubility at 28 h", "setting": "[2]; pH 2.02, aqueous buffer, Sample A: 0.2M Citric Acid, pH 2.02, temperature cycle 25/40/25° C., read-out: Solubility", "result": 4000, "unit": "µg/mL"}, {"measurement": "solubility at 28 h", "setting": "[2]; pH 2.07, aqueous buffer, 0.2M DL lactic acid buffer, read-out: Amount dissolved with solution still clear (saturated solubility not yet reached)", "result": "> 45700", "unit": "µg/mL"}, {"measurement": "solubility at 28 h", "setting": "[2]; pH 2.07, aqueous buffer, Sample C: 0.2M DL Lactic Acid, pH 2.07, read-out: Solubility", "result": 45700, "unit": "µg/mL"}, {"measurement": "solubility at 28 h", "setting": "[2]; pH 2.31, aqueous buffer, Sample M: 0.1M DL Lactic Acid, pH 2.31, read-out: Solubility", "result": 36300, "unit": "µg/mL"}, {"measurement": "solubility at 28 h", "setting": "[2]; pH 2.42, aqueous buffer, Sample D: 0.2M Succinic acid, pH 2.42, read-out: Solubility", "result": 1100, "unit": "µg/mL"}, {"measurement": "solubility at 28 h", "setting": "[2]; pH 2.46, aqueous buffer, Sample N: 0.05M DL Lactic Acid, pH 2.46, read-out: Solubility", "result": 16200, "unit": "µg/mL"}, {"measurement": "solubility at 28 h", "setting": "[2]; pH 2.83, aqueous buffer, Sample O: 0.01M DL Lactic Acid, pH 2.83, read-out: Solubility", "result": 3800, "unit": "µg/mL"}, {"measurement": "solubility at 28 h", "setting": "[2]; pH 3.15, aqueous buffer, Sample G: 9.5 mL D + 0.5 mL E (succinic acid/sodium succinate), pH 3.15, read-out: Solubility", "result": 1700, "unit": "µg/mL"}, {"measurement": "solubility at 28 h", "setting": "[2]; pH 3.45, aqueous buffer, Sample H: 9 mL D + 1 mL E, pH 3.45, read-out: Solubility", "result": 340, "unit": "µg/mL"}, {"measurement": "solubility at 28 h", "setting": "[2]; pH 3.93, aqueous buffer, Sample I: 8 mL D + 2 mL E, pH 3.93, read-out: Solubility", "result": 67, "unit": "µg/mL"}, {"measurement": "solubility at 28 h", "setting": "[2]; pH 4.62, aqueous buffer, Sample J: 5 mL D + 5 mL E, pH 4.62, read-out: Solubility", "result": 68, "unit": "µg/mL"}, {"measurement": "solubility at 28 h", "setting": "[2]; pH 4.98, aqueous buffer, Sample K: 5 mL D + 10 mL E, pH 4.98, read-out: Solubility", "result": 55, "unit": "µg/mL"}, {"measurement": "solubility at 28 h", "setting": "[2]; pH 5.25, aqueous buffer, Sample L: 5 mL D + 15 mL E, pH 5.25, read-out: Solubility", "result": 91, "unit": "µg/mL"}, {"measurement": "solubility at 28 h", "setting": "[2]; pH 8.38, aqueous buffer, Sample E: 0.2M Sodium succinate, pH 8.38, read-out: Solubility", "result": 4, "unit": "µg/mL"}, {"measurement": "Degradation (in words)", "setting": "[2]; [6]", "result": "minimal degradation"}, {"measurement": "Solubility (in words)", "setting": "[2]; [6]", "result": "significantly enhanced solubility"}]}]}
